Measurements from article PMC8955938, “c-Myc Protein Level Affected by Unsymmetrical Bisacridines Influences Apoptosis and Senescence Induced in HCT116 Colorectal and H460 Lung Cancer Cells” (International Journal of Molecular Sciences, 2022).

Assays:
[1] = tested on: KRAS gene expression in HCT116 cells; test: RT-PCR KRAS expression in HCT116; assay type: cell-based, human; conditions: HCT116, IC90 doses, up to 120 h
Description: HCT116, H460, CCD 841 CoN and MRC-5 cells after treatment with UAs were collected, washed twice with ice-cold PBS and resuspended in […] of PBS. mRNA was isolated using High Pure RNA Isolation Kit according to the manufacturer’s instructions (Roche, Basel, Switzerland). Briefly, cells were lysed in lysis-binding buffer and transferred to a filter tube. Contaminating DNA was removed by 15 min incubation of the filter tube with DNase I solution. The filter tube was washed once with buffer I and twice with buffer II, and after centrifugation, total RNA was eluted using the elution buffer. RNA concentration was determined by NanoDrop One (Thermo Scientific); 1 µg of RNA was reverse transcribed using Transcriptor First Strand cDNA Synthesis Kit according to the manufacturer’s instructions (Roche) in 20 µL of reaction containing 1 µg of RNA, […] anchored-oligo(dT)18Primer, 8 mM MgCl2, 20 U of Protector RNase Inhibitor, deoxynucleotide mix (1 mM each) and 22 U of Transcriptor Reverse Transcriptase. The reverse transcription reaction was carried out for 30 min at 55 °C and stopped by heating to 85 °C for 5 min and placing on ice. The cDNA solution was stored at −20 °C until use. […] The relative expression level of MYC and KRAS was quantified using comparative method […]. The results were obtained from three independent experiments, each of which was analyzed at least twice.

H460 cells [2] = test: Accelerated senescence (SA-β-gal), H460; assay type: cell-based, human; conditions: H460, IC90 doses, 72 and 120 h
Description: The accelerated senescence examination was based on the analysis of pH 6.0-dependent β-galactosidase (SA-β-gal) expression together with senescence-related morphology, such as enlarged and flattened cells. HCT116 and H460 cells were seeded in 60 mm plates containing microscope coverslips and treated with UAs for up to 120 h. After the treatment, coverslips with attached cells were moved to 35 mm dishes, washed twice with PBS and fixed with […] for 5 min. The cells were then washed twice with PBS (pH 6.0) and incubated at pH 6.0 with X-gal (5-bromo-4-chloro-3-indolyl-β-D-[…], substrate for SA-β-gal) staining solution (1 mg/mL X-gal, 40 mmol/L citric acid/sodium phosphate, pH 6.0, 5 mmol/L potassium ferrocyanide, 5 mmol/L potassium ferricyanide, 150 mmol/L NaCl, 2 mmol/L MgCl2). Following overnight incubation at 37 °C, cells were washed twice with PBS and observed under a light microscopy (OLYMPUS BX60; magnification ×200).

H460 cells [3] = test: Apoptosis in H460, summary of all conducted experiments; assay type: cell-based, human; conditions: H460, IC90 doses, 120 h, summary in discussion
Description: Nuclear morphology was examined under a fluorescence microscope (OLYMPUS BX60, […]) after staining with Hoechst 33342. Briefly, after drug treatment, HCT116, H460, CCD 841 CoN and MRC-5 cells were spun onto microscopic slides, fixed with methanol:acetic acid (3:1) for 15 min and stained with Hoechst 33342 (1 mg/mL) for 15 min. Cells were regarded as apoptotic based on the presence of condensed, fragmented chromatin. Enlarged cells containing multiple nuclei were considered as typical of mitotic catastrophe.
Annexin V–FITC binding was performed with an Annexin-V Fluos Staining kit (BD Biosciences, San Jose, CA, USA) according to manufacturer’s protocol. […] Cells were incubated for 15 min at room temperature in the dark, then diluted with 400 µL of binding buffer and analyzed by flow cytometry with FACS Accuri C6 (BD, San Jose, CA, USA). Cells with low FITC and PI fluorescence were considered viable. Cells that presented high FITC fluorescence but low PI fluorescence were regarded as early apoptotic. Late apoptotic cells presented high FITC and PI fluorescence. Necrotic cells had low FITC fluorescence and high PI fluorescence.
Caspase-3 activity was determined using Alexa Fluor 647-conjugated anti-active caspase-3 antibody (BD Biosciences, San Diego, CA, USA) according to the manufacturer’s instructions. […]

H460 spheroids = tested on: H460 spheroids; set-up: method as in PMID 34684841; conditions: H460 3D spheroids; cited from earlier work

Structure (SMILES)	KRAS expression compared to untreated control [1]	accelerated senescence (SA-β-gal blue staining) (H460 cells [2])	treated cells that underwent apoptosis (H460 cells [3])	inhibition of spheroids growth (H460 spheroids)
Cc1ccc([N+](=O)[O-])c2c(NCCCN(C)CCCNc3ccc4ncn5c6ccccc6c(=O)c3c45)c3ccccc3nc12 [Compound C-2053]	significant difference	least profound changes	about 60%	to the greatest extent
CN(CCCNc1c2ccccc2nc2cccc([N+](=O)[O-])c12)CCCNc1ccc2ncn3c4ccccc4c(=O)c1c23 [Compound C-2028]	–	induced senescence to the highest extent	–	–
Cc1ccc([N+](=O)[O-])c2c(NCCCN(C)CCCNc3ccc4ncn5c6ccc(O)cc6c(=O)c3c45)c3ccccc3nc12 [Compound C-2045]	–	–	about 60%	–
O=c1c2ccccc2n2cnc3ccc(NCCCN4CCN(CCCNc5c6ccccc6nc6cccc([N+](=O)[O-])c56)CC4)c1c32 [Compound C-2041]	–	–	–	to the least extent
